Test results taken from the supplement of paper PMC10307832.

Columns and labels:
Assay in all cases: relative viability (nuclei count vs DMSO), 5 days (fraction); higher = more cells survive
[1] = compound: O=C(NCCCNc1nc(Nc2cccc(NC(=O)N3CCCC3)c2)ncc1I)c1cccs1 [BX 795] + NC(=O)Nc1cc(-c2cccc(F)c2)sc1C(=O)N[C@H]1CCCNC1 [AZD7762] (partner 0.2 µM)
Outline: (§1)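 Lung cancer cell lines were seeded in 1536-well plates and dosed by pin tool the next day, with either a single drug or a fixed anchor-drug dose combined with five library-drug doses (not always all listed) spaced in √10 steps. Five days later, one step fixed the cells and stained their nuclei (final 0.05% Triton X-100, 1% formaldehyde, 1 ug/ml Hoechst), and nuclei were counted on 4× images. Relative viability is the nuclei count in treated wells divided by the count in vehicle wells, and each value is the median of duplicate plates.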

[2] = compound: O=C(NCCCNc1nc(Nc2cccc(NC(=O)N3CCCC3)c2)ncc1I)c1cccs1 [BX 795] + CS(=O)(=O)N1CCN(Cc2cc3nc(-c4cccc5[nH]ncc45)nc(N4CCOCC4)c3s2)CC1 [Pictilisib] (partner 1 µM)
Outline: as §1

[3] = compound: O=C(NCCCNc1nc(Nc2cccc(NC(=O)N3CCCC3)c2)ncc1I)c1cccs1 [BX 795] + CC(=O)Nc1cccc(-n2c(=O)n(C3CC3)c(=O)c3c(Nc4ccc(I)cc4F)n(C)c(=O)c(C)c32)c1 [Trametinib] (partner 0.02 µM)
Outline: as §1

[4] = compound: O=C(NCCCNc1nc(Nc2cccc(NC(=O)N3CCCC3)c2)ncc1I)c1cccs1 [BX 795] + N=C(N)NC(=N)NCCc1ccccc1 [Phenformin] (partner 250 µM)
Outline: as §1

[5] = compound: O=C(NCCCNc1nc(Nc2cccc(NC(=O)N3CCCC3)c2)ncc1I)c1cccs1 [BX 795] + Nc1nc2[nH]cc(CCc3ccc(C(=O)N[C@@H](CCC(=O)O)C(=O)O)cc3)c2c(=O)[nH]1 [Pemetrexed] (partner 0.2 µM)
Outline: as §1

Cell Line | relative viability ([1]; first compound 0.04 µM) | relative viability ([1]; first compound 0.1265 µM) | relative viability ([1]; first compound 0.4 µM) | relative viability ([1]; first compound 1.265 µM) | relative viability ([2]; first compound 0.04 µM) | relative viability ([2]; first compound 0.1265 µM) | relative viability ([2]; first compound 0.4 µM) | relative viability ([2]; first compound 1.265 µM) | relative viability ([3]; first compound 0.04 µM) | relative viability ([3]; first compound 0.1265 µM) | relative viability ([3]; first compound 0.4 µM) | relative viability ([3]; first compound 1.265 µM) | relative viability ([4]; first compound 0.04 µM) | relative viability ([4]; first compound 0.1265 µM) | relative viability ([4]; first compound 0.4 µM) | relative viability ([4]; first compound 1.265 µM) | relative viability ([5]; first compound 0.04 µM) | relative viability ([5]; first compound 0.1265 µM) | relative viability ([5]; first compound 0.4 µM) | relative viability ([5]; first compound 1.265 µM)
NCI-H2347 | 0.806 | 0.838 | 0.677 | 0.578 | 0.818 | 0.492 | 0.851 | 0.722 | 0.282 | 0.239 | 0.29 | 0.275 | 0.475 | 0.466 | 0.555 | 0.391 | 0.424 | 0.375 | 0.434 | 0.434
NCI-H2405 | 0.714 | 0.678 | 0.664 | 0.573 | 0.373 | 0.364 | 0.295 | 0.319 | 0.557 | 0.556 | 0.44 | 0.534 | 0.438 | 0.355 | 0.33 | 0.262 | 1.06 | 1.02 | 0.996 | 1.05
NCI-H3122 | 1.06 | 1.07 | 0.937 | 1.03 | 0.588 | 0.656 | 0.588 | 0.595 | 0.216 | 0.312 | 0.248 | 0.26 | 0.409 | 0.38 | 0.381 | 0.348 | 0.172 | 0.207 | 0.141 | 0.182
PC-3 [JPC-3] | 0.809 | – | 0.685 | 0.802 | 0.753 | 0.707 | 0.685 | 0.827 | 0.723 | – | 0.631 | 0.729 | 0.484 | 0.439 | 0.492 | 0.483 | 1.04 | – | 1.16 | 1.02
PC-14 | 0.369 | 0.383 | 0.335 | 0.282 | 0.654 | 0.758 | 0.564 | 0.439 | 0.754 | 0.751 | 0.815 | 0.325 | 0.533 | 0.488 | 0.633 | 0.289 | 0.0872 | 0.135 | 0.0536 | 0.115
RERF-LC-KJ | 1.16 | 1.05 | 1.11 | 0.86 | 0.488 | 0.574 | 0.536 | 0.446 | – | 0.962 | 0.878 | 0.788 | 0.473 | 0.424 | 0.452 | 0.282 | – | 0.444 | 0.443 | 0.467
